Source: article PMC6036970, “Natural and redesigned wasp venom peptides with selective antitumoral activity” (Beilstein Journal of Organic Chemistry, 2018)
Where no end group is shown, it is not given here.

Key:
human red blood cells = conditions: ref Torres et al. [9]–[10]; cited from earlier work
Description: Table 1 Theoretical physicochemical properties and hemolytic activity of decoralin and its synthetic analogs.^a

[1] = system: MCF-7 breast cancer cells; assay: MTT cytotoxicity assay on MCF-7 cancer cells; assay type: cell-based; conditions: for IC50 against MCF-7 / IC50: MCF-7, 24 h, read at 570 nm; for IC50 against MCF-7 / IC50 / LD50 / concentration achieving >50% of cancer cell lysis: MTT, triplicate; for effect on cell viability 2 h post-exposure: after 2 h; for inhibition of cancer cell growth: dose of ≈50 μmol L^−1; for inhibition of cell viability: 50 μmol L^−1 after 2 h; for IC50: read-out: IC50 against MCF-7; for LD50 / concentration achieving >50% of cancer cell lysis: MCF-7, after 24 h
Method: (§1) MCF-7 cells (ATCC) were maintained in RPMI 1640 medium supplemented with 10% heat inactivated FBS and 100 μg mL^−1 penicillin/10 μg mL^−1 streptomycin. One day before the assays, the cells were plated in 96-well microtiter plates with a density of 2.0 × 10^4 cells/well at 37 °C and 5% CO2. On the next day, cells were treated with peptides serial dilutions (0.09–50 μmol L^–1), incubated in individual microtiter plates for 2 and 24 h and MTT assays were performed after treatment. Human breast epithelial cells MCF-10A (ATCC) were maintained in a mixture of Dulbecco’s Modified Eagle’s Medium and Ham’s F12 nutrient mixture supplemented with 5% inactivated horse serum, 10 μg mL^−1 insulin, 0.02 μg mL^−1 human epidermal growth factor, 0.5 μg mL^−1 hydrocortisone, 0.10 μg mL^−1 choleric toxin, 100 U mL^−1 penicillin, and 100 μg mL^−1 streptomycin. The cells were preincubated for 24 h, plated in 96-well microtiter plates with a density of 2.0 × 10^4 cells/well at 37 °C and 5% CO2. On the next day, cells were treated with peptides serial dilutions (25 to 100 μmol L^−1), incubated in individual microtiter plates for 4 and 24 h and MTT assay was performed after treatment. Experiments were performed in triplicate.
(§2) Briefly, MTT (Sigma-Aldrich) was dissolved in water and filtered to make up a […] solution. 30 μL of this solution were added to all the wells which already contained peptide-treated cells and kept at 37 °C for 45 minutes. Subsequently, the solution was discarded and replaced with 150 μL/well of DMSO and followed by gentle shaking for 15 minutes. Finally, the microplates were read on an ELISA reader at 570 nm. Experiments were performed in triplicate.

MCF-10A normal cells = assay: MTT cytotoxicity assay on MCF-10A normal cells; assay type: cell-based, human; conditions: for cytotoxicity against MCF-10A normal cells: up to higher concentrations (≈100 μmol L^−1)
Method: as §1, §2

MCF-7 cells = assay: AFM measurement of cell membrane roughness; assay type: cell-based; conditions: MCF-7, 50 μmol L^−1, 24 h, AFM contact mode, Ra and Rq
Method: The AFM imaging of MCF-7 cells untreated (control) and treated with peptide (50 μmol L^−1 solutions of Dec-NH2 and [Leu]^8-Dec-NH2, which presented low activity when compared to other analogs and was used here as a treated control) was performed using an Agilent Technologies 5500 AFM/SPM microscope that was in contact mode and a Nanosensors™ PPP-CONT probe (NanoSensors; PPP-Cont-20, PointProbe-Plus Silicon-SPM-Sensor). The material properties and dimensions of the AFM tips used in this experiment were as follows: resonance frequency of 6–21 kHz, force constant of 0.02–0.77 N m^−1, cantilever length of 450 ± 10 μm, cantilever width of 50 ± 7.5 μm, cantilever thickness of 2 ± 1 μm, tip height of 10–15 μm and resistivity of 0.01–0.02 Ω cm. The assays were performed in triplicate; image processing and roughness determinations were performed with the aid of the Gwyddion software (http://gwyddion.net/download.php). In order to compare the cell surface, we used two roughness parameters, the mean roughness (Ra) and the mean square of Z data (Rq), where N is the difference between the highest and the lowest points in the analyzed area. […]
The root mean square of the Z values Rq is the standard deviation of the N values in the area analyzed and is given by Equation 2: […]

[2] = system: Gram-positive bacteria, Gram-negative bacteria, and fungi; conditions: ref Torres et al. [9]; cited from earlier work

Substance	MHC (maximal non-hemolytic concentration) (human red blood cells)	IC50 against MCF-7 [1]	inhibition of cancer cell growth ([1]; MCF-7, MTT)	IC50 [1]	also measured
RLLSLIRKLIT-NH2 [[Arg]^1-Dec-NH2, synthetic analog of Dec-NH2]	25.00 µmol/L	50.0 µM	substantial inhibition		effect on cell viability 2 h post-exposure ([1]; MCF-7, MTT): significant decreased cell viability
SFLSLIRKLIT-NH2 [[Phe]^2-Dec-NH2, synthetic analog of Dec-NH2]	3.12 µmol/L	50.0 µM	substantial inhibition		inhibition of cell viability ([1]; MCF-7, MTT): inhibited cell viability the most
SLLPLIRKLIT-NH2 [[Pro]^4-Dec-NH2]	12.50 µmol/L			25 µM	
SLLSLFRKLI-NH2 [[Phe]^6-Des[Thr]^11-Dec-NH2, synthetic analog of Dec-NH2]	12.50 µmol/L	50.0 µM	substantial inhibition		inhibition of cell viability ([1]; MCF-7, MTT): inhibited cell viability the most
SLLSLFRKLIT-NH2 [[Phe]^6-Dec-NH2]	3.12 µmol/L			> 50 µM	effect on cell viability 2 h post-exposure ([1]; MCF-7, MTT): did not show significant inhibition
SLLSLIRKLIT-NH2 [Dec-NH2]	1.56 µmol/L			12.5 µM	cytotoxicity against MCF-10A normal cells (MCF-10A normal cells): no significant cytotoxicity; LD50 / concentration achieving >50% of cancer cell lysis [1]: 12.5 µmol/L
SLLSLIRKLIW-NH2 [[Trp]^11-Dec-NH2]	1.56 µmol/L			25 µM	
SLLSLIRKLLT-NH2 [[Leu]^10-Dec-NH2]	25.00 µmol/L			12.5 µM	cytotoxicity against MCF-10A normal cells (MCF-10A normal cells): no significant cytotoxicity; LD50 / concentration achieving >50% of cancer cell lysis [1]: 12.5 µmol/L
SLLSLIRLLIT-NH2 [[Leu]^8-Dec-NH2]	50.00 µmol/L			> 50 µM	change of membrane roughness (MCF-7 cells): did not significantly change membrane roughness; antimicrobial activity (order of magnitude) [2]: ~10^1 μmol L^−1; cytotoxicity towards normal MCF-10A cells (MCF-10A normal cells; lowest concentration tested (25 μmol L^−1)): cytotoxic; activity against MCF-7 cells compared to the negative control ([1]; MCF-7, MTT): did not present significant activity
